Experimental data published in ChEMBL document CHEMBL1201862, “PubChem BioAssay data set” (2004).
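Protocol summary: plate cells (96-well), add compound at 5 concentrations, incubate 48 h, interpolate endpoints linearly. Abbreviation: GI50, concentration required for 50% inhibition of growth.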 The source made the active and inactive calls. No stated cut-off is given here; in the data, active = GI50 up to about 1.1 µM and inactive = higher.

Tests used:
Experiment in all cases: NCI anticancer screen, dose series, 48 h
[1] = test system: Malme-3M
[2] = test system: HCT-116
[3] = test system: U-251
[4] = test system: NCI-H23
[5] = test system: MDA-MB-435
[6] = test system: SF-295
[7] = test system: SK-MEL-2
[8] = test system: SR
[9] = test system: UACC-257
[10] = test system: IGROV-1
[11] = test system: SK-OV-3
[12] = test system: EKVX
[13] = test system: A498
[14] = test system: DU-145
[15] = test system: HOP-92
[16] = test system: HT-29
[17] = test system: M14
[18] = test system: SK-MEL-5
[19] = test system: COLO 205
[20] = test system: HOP-62

Measured: GI50

CCCCCCCCCCCC(=O)N(CCCCCCCCC)CC(O)C(O)C(OC1OC(CO)C(O)C(O)C1O)C(O)CO (stereo not drawn)
inactive: [1] 19.5 µM | [2] 17.7 µM | [3] 20.4 µM | [4] 17.6 µM | [5] 17.7 µM | [6] 18.4 µM | [7] 19.7 µM | [8] 24.7 µM | [9] 16.9 µM | [10] 18.3 µM | [11] > 10 µM | [12] 17.3 µM | [13] 23.1 µM | [14] 18.5 µM | [15] 18.6 µM | [16] 19.2 µM | [17] 19.4 µM | [18] 17.4 µM | [19] 20.7 µM | [20] 20.6 µM

COc1c2c(cc3c1OCO3)[C@]13C=C[C@H](OC)C[C@H]1N(C2)CC3O (stereo partly drawn)
inactive: [1] > 100 µM | [2] > 100 µM | [3] > 100 µM | [4] > 100 µM | [5] > 100 µM | [6] > 100 µM | [7] > 100 µM | [8] 18.4 µM | [9] > 100 µM | [10] > 100 µM | [11] > 100 µM | [12] > 100 µM | [13] > 100 µM | [14] > 100 µM | [15] > 100 µM | [16] > 100 µM | [17] > 100 µM | [18] > 100 µM | [19] > 100 µM | [20] > 100 µM

C[B@@-]1(c2ccc(C(F)(F)F)cc2)N[C@@H](Cc2ccccc2)C(=O)O1
inactive: [1] > 100 µM | [2] > 100 µM | [3] > 100 µM | [4] > 100 µM | [5] > 100 µM | [6] > 100 µM | [8] > 100 µM | [9] > 100 µM | [10] > 100 µM | [11] > 100 µM | [12] > 100 µM | [13] > 100 µM | [14] > 100 µM | [15] 11.9 µM | [16] > 100 µM | [17] > 100 µM | [18] > 100 µM | [19] > 100 µM | [20] > 100 µM

c1ccc2c(c1)NC(C1OC3CCCN3C1C1Nc3ccccc3S1)S2 (stereo not drawn)
inactive: [1] > 100 µM | [2] 55.3 µM | [3] 80.2 µM | [4] 29 µM | [5] 75.2 µM | [6] 90.6 µM | [8] 22.3 µM | [9] 48.3 µM | [10] > 100 µM | [11] > 100 µM | [12] > 100 µM | [13] > 100 µM | [14] > 100 µM | [15] > 100 µM | [16] 44.4 µM | [17] > 100 µM | [18] 39.6 µM | [19] 83.6 µM | [20] 97.9 µM

OC[C@H]1CCCC1O (stereo partly drawn)
inactive: [1] > 100 µM | [2] > 100 µM | [3] > 100 µM | [4] > 100 µM | [5] > 100 µM | [6] > 100 µM | [7] > 100 µM | [8] > 100 µM | [9] > 100 µM | [10] > 100 µM | [13] > 100 µM | [14] > 100 µM | [15] > 100 µM | [16] > 100 µM | [17] > 100 µM | [18] > 100 µM | [19] > 100 µM

CCOC(C)O[C@H]1C(=O)OCC1(C)C (stereo partly drawn)
inactive: [1] > 100 µM | [3] > 100 µM | [4] > 100 µM | [5] > 100 µM | [6] > 100 µM | [7] > 100 µM | [8] > 100 µM | [9] > 100 µM | [10] > 100 µM | [11] > 100 µM | [12] > 100 µM | [13] > 100 µM | [14] > 100 µM | [15] > 100 µM | [16] > 100 µM | [17] > 100 µM | [18] > 100 µM | [19] > 100 µM | [20] > 100 µM

CSc1c(C#N)c2n(c3ccccc13)c1ccccc1[n+]2C
inactive: [1] 16 µM | [2] 6.4 µM | [3] 24.6 µM | [4] 25.5 µM | [5] 20.9 µM | [6] 34 µM | [7] 20.3 µM | [8] > 100 µM | [9] 19.7 µM | [10] 33.2 µM | [12] 19.1 µM | [13] 21 µM | [14] 29.2 µM | [15] 33.5 µM | [16] 21 µM | [17] 29.3 µM | [18] 11.9 µM | [19] 15 µM | [20] 23.1 µM

COC1(OC)C2C=CC1C([C@](C)(N)CO)C2 (stereo partly drawn)
inactive: [1] > 100 µM | [2] > 100 µM | [3] > 100 µM | [4] > 100 µM | [5] > 100 µM | [6] > 100 µM | [8] > 100 µM | [9] > 100 µM | [10] > 100 µM | [11] > 100 µM | [12] > 100 µM | [13] > 100 µM | [14] > 100 µM | [15] > 100 µM | [16] > 100 µM | [17] > 100 µM | [18] > 100 µM | [19] > 100 µM | [20] > 100 µM

CSc1ccc(Nc2cc(=O)[nH]c(=O)[nH]2)cc1
inactive: [1] > 100 µM | [2] > 100 µM | [3] > 100 µM | [4] > 100 µM | [5] > 100 µM | [6] > 100 µM | [7] > 100 µM | [8] > 100 µM | [9] > 100 µM | [11] > 100 µM | [13] > 100 µM | [14] > 100 µM | [15] > 100 µM | [16] > 100 µM | [17] > 100 µM | [18] > 100 µM | [19] > 100 µM

CN(CC(=O)O)c1ccc(/C=C/c2ccnc3ccccc23)cc1
inactive: [2] 23.8 µM | [3] 22.8 µM | [4] 33.3 µM | [5] 14.1 µM | [6] 18.1 µM | [7] 18.8 µM | [8] 6.93 µM | [9] 25.4 µM | [10] 13.9 µM | [11] 28.9 µM | [12] 4.47 µM | [13] 17.1 µM | [14] 33.6 µM | [15] 22.9 µM | [16] 23 µM | [17] 22.2 µM | [18] 16 µM | [19] 16 µM | [20] 31.3 µM
